Test results as given in patent publication US7282522B2, “Hydroxamic acid derivatives and the method for preparing thereof” (Amorepacific Corporation, priority 2003, dated 2007).
Like-named read-outs stand apart in the source and are kept apart here.

How the values were obtained:
[1] = biological target: T1, RARα (Homo sapiens, UniProt P10276); test: RARE-luciferase reporter assay in transfected CV-1 cells (affinity to retinoic acid receptor), RARα; type: cell-based; details: treated 24 hours at final concentration 10^−4M, control group 1000
T1 construct: expressed in transfected cells; host or cells: CV-1 cells (ATCC)
T1 sequence (P10276 1-462): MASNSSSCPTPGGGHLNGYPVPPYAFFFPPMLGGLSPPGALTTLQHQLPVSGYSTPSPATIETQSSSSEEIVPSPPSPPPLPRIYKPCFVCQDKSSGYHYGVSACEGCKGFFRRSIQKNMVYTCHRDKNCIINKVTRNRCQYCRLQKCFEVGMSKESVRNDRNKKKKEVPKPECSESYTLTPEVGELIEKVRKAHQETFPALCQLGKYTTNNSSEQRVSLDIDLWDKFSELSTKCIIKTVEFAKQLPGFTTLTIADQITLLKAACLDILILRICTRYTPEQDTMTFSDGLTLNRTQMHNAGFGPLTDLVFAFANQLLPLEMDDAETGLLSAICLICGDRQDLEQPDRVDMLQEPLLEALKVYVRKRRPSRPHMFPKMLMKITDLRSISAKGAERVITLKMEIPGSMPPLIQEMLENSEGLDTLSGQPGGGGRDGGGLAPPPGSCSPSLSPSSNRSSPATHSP
How it was run: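 CV-1 cells co-transfected with pECE-RARα or pECE-RARγ, RARE-tk-Luc reporter and β-galactosidase vector. Starting 24 h post-transfection, cells were treated for 24 h with compounds at a final 10^−4M; luciferase reporter read-out.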

[2] = biological target: T2, RARγ (Homo sapiens, UniProt P13631); test: RARE-luciferase reporter assay in transfected CV-1 cells (affinity to retinoic acid receptor), RARγ; type: cell-based; details: treated 24 hours at final concentration 10^−4M, control group 5000
T2 construct: expressed in transfected cells; host or cells: CV-1 cells (ATCC)
T2 sequence (P13631 1-454): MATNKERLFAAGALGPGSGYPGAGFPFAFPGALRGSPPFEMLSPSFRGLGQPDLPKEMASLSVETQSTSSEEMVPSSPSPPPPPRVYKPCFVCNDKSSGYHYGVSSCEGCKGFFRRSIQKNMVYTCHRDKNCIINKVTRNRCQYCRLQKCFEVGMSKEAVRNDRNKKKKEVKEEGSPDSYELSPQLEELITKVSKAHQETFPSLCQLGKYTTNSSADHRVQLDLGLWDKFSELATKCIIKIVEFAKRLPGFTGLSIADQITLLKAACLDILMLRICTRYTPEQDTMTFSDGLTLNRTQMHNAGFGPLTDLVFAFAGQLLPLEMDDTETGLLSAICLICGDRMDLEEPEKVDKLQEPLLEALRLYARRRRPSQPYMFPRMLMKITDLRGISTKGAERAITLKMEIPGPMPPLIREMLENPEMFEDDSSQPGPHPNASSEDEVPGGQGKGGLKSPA
How it was run: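 CV-1 cells in DMEM with 2.5% FBS, 5,000 per well, transfected 24 h after seeding with 10 ng pECE-RARα, pECE-RARγ, 100 ng RARE-tk-Luc reporter and 100 ng β-galactosidase vector. Read-out is RARE-driven luciferase.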

[3] = test system: procollagen type I; test: Effect on collagen biosynthesis (procollagen type I ELISA) in human fibroblasts; type: cell-based; details: 10^−4M, 24 hours, serum-free medium, relative to control group = 100
Description: Human fibroblasts were seeded into 24-well plate at 1×10^5 cells per well and then cultured to 90% of growth.
For each supernatant, procollagen production was measured with procollagen type I ELISA kit.

[4] = test system: collagenase; test: Inhibition of collagenase expression in human fibroblasts (ELISA kit); type: cell-based; details: 10^−4M, 24 hours, serum-free medium, relative to control group = 100
How it was run: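 Serum-starved human fibroblasts were treated for 24 h with 10^−4M test material in serum-free DMEM. Collagenase in the culture fluid was measured by sandwich ELISA read at 405 nm. Values are expressed as % of the untreated control (=100).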

[5] = test system: elastase; test: Inhibition of elastase expression in human fibroblasts (ELISA kit); type: cell-based; details: 10^−4M, 24 hours, serum-free medium, relative to control group = 100
How it was run: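 Elastase in fibroblast culture fluid quantified by sandwich ELISA: 3 h capture, then chromophore-conjugated secondary antibody, then colour development, stopped with 1M sulfuric acid. Absorbance read at 405 nm. Expression given as % of the untreated control absorbance, with control set to 100.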

[6] = test system: rabbits; details: rabbit, in vivo
[7] = test system: white guinea pigs; test: Phototoxicity test (UVA irradiation); details: for Evaluation (phototoxicity): 1%(w/v) solution, UVA 15 J/cm^2; for Phototoxic index: 50 μl of 1%(w/v) solution, UVA 320~380 nm 15 J/cm^2, observed 24, 48 and 72 hours
[8] = test system: rabbits; test: Primary skin irritation test on animals (Draize P.I.I.); details: depilated back

Molecule	Luciferase activity RARα [1]	Luciferase activity RARγ [2]	Collagen biosynthesis (%) [3] [%]	Collagenase expression (%) [4] [%]	Elastase expression (%) [5] [%]	Evaluation (skin irritation) [6]	P.I.I. (Primary Irritation Index) [6]	Evaluation (phototoxicity) [7]	Phototoxic index [7]	P.I.I. (Primary Irritation Index) ([8]; 0.5 ml of 1% solution in 1,3-butylene glycol:ethanol 7:3, observed 24 or 72 hours later)	Evaluation (skin irritation) ([8]; 1% solution, according to Draize's P.I.I.)
CN(C(=O)c1ccc(C(C)(C)C)cc1)c1ccc(C(=O)NO)cc1 [Example 19, N-[4-(N-hydroxycarbamoyl)phenyl]-N-methyl-[4-tert-butylphenyl]carboxyamide]	10020	11200	120	70	80	No irritation	0.223	No phototoxicity (lower value than 0.5, criterion value to be estimated as no phototoxicity)	0	–	–
O=C(Cc1ccc(NC(=O)c2ccccc2)cc1)NO [Example 23, N-[4-(N-hydroxycarbamoylmethyl)phenyl]benzamide]	13000	13200	131	77	79	No irritation	0.321	No phototoxicity (lower value than 0.5, criterion value to be estimated as no phototoxicity)	0	–	–
CN(O)C(=O)c1ccc(C(=O)N(C)C23CC4CC(CC(C4)C2)C3)cc1 [Example 55, N-adamantyl [4-(N-hydroxy-N-methylcarbamoyl)phenyl]-N-methyl carboxyamide]	13400	11000	108	85	70	–	–	No phototoxicity (lower value than 0.5, criterion value to be estimated as no phototoxicity)	0	0.245	No irritation
N-[4-(N-hydroxycarbamoyl)phenyl]adamantyl carboxyamide [Example 10]	11000	12000	106	75	77	No irritation	0.375	No phototoxicity (lower value than 0.5, criterion value to be estimated as no phototoxicity)	0	–	–
